Measured values from US6818407B2, “Anti-endotoxic antimicrobial cationic peptides and methods of use therfor” (priority 1998, dated 2004).

Experiments:
[1] = test system: Pseudomonas aeruginosa strain M2; test: Protection of neutropenic CD-1 mice challenged with Pseudomonas aeruginosa; assay type: in vivo; design: Survival post bacterial challenge, surviving mice: reference not given here; details: for Survival (%) post bacterial challenge: PBS 8
How it was run: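 Neutropenia induced by three i.p. cyclophosphamide doses ([…], alternate days); mice then infected i.p. with 200-300 organisms/mouse. Peptides (200 µg/mouse = 8 mg/kg) in buffered citrate given i.p. at 30 min (single) or 30 min and 16 hrs (double) post-challenge; PBS control; mean of 2 experiments.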

P. aeruginosa (H103) = test: Synergy study (checkerboard titration) with hen white lysozyme; assay type: cell-based
E. coli [2] = test: as above; assay type: cell-based
Salmonella typhi = test: as above; assay type: cell-based
E. coli [3] = test: MIC, broth microdilution assay in polypropylene microtiter trays; assay type: cell-based; details: average of three separate experiments
How it was run: (§1)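 Each peptide's inhibitory endpoint is based on optical density: absence of any OD change for the chosen duration defines the minimal inhibitory concentration.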

S. aureus K147 = test: as above; assay type: cell-based; details: average of three separate experiments
How it was run: as §1

S. aureus = test: as above; assay type: cell-based; details: average of three separate experiments
How it was run: as §1

P. aeruginosa = test: as above; assay type: cell-based; details: average of three separate experiments
How it was run: as §1

[4] = test system: mutant (Nal B, H744) of P. aeruginosa; test: microbe, parasite or virus in culture; assay type: cell-based
How it was run: (§2)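 Checkerboard titration in Mueller Hinton broth, peptide against carbenicillin or ciprofloxacin, inoculum 10 μl of 10^−4 dilution of overnight culture, 18-24 h at 37 °C. Combination MIC is the lowest concentration reducing growth >50%. FIC index = A/MIC A + B/MIC B, with ≤~0.5 synergy, 1.0 additivity, >1.0 antagonism.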

[5] = test system: β-lactamase derepressed mutant (H547) of P. aeruginosa; test: microbe, parasite or virus in culture; assay type: cell-based; details: P. aeruginosa H547
How it was run: as §2

[6] = cationic peptide concentration, combined with lysozyme
[7] = lysozyme concentration, combined with the peptide

CC[C@H](C)[C@H](NC(=O)CNC(=O)[C@@H](NC(=O)[C@H](CCCCN)NC(=O)[C@H](CCCCN)NC(=O)[C@H](Cc1ccccc1)NC(=O)[C@H](CC(C)C)NC(=O)[C@H](CCCCN)NC(=O)[C@H](Cc1c[nH]c2ccccc12)NC(=O)[C@@H](N)CCCCN)[C@@H](C)CC)C(=O)NCC(=O)N[C@@H](C)C(=O)N[C@H](C(=O)N[C@@H](CC(C)C)C(=O)N[C@@H](CCCCN)C(=O)N[C@H](C(=O)N[C@@H](CC(C)C)C(=O)N[C@@H](CCCCN)C(=O)N[C@H](C(=O)N[C@@H](CC(C)C)C(=O)N[C@H](C(=O)N[C@H](C(=O)NCC(=O)N[C@@H](CC(C)C)C(=O)N1CCC[C@H]1C(=O)N[C@@H](C)C(=O)N[C@@H](CC(C)C)C(=O)N[C@@H](CCCCN)C(=O)N[C@@H](CC(C)C)C(=O)N[C@H](C(=O)N[C@@H](CC(C)C)C(=O)N[C@@H](CCCCN)C(=O)O)[C@@H](C)O)[C@@H](C)O)[C@@H](C)O)C(C)C)C(C)C)C(C)C [CM4]
Survival post bacterial challenge, surviving mice ([1]; double dose (200 μg per mouse i.p. at 30 min and 16 hrs), 16 hr): 14 | Survival post bacterial challenge, surviving mice ([1]; double dose, 24 hr): 14 | Survival post bacterial challenge, surviving mice ([1]; double dose, 41 hr): 7 | Survival post bacterial challenge, surviving mice ([1]; double dose, 48 hr): 2 | Survival post bacterial challenge, surviving mice ([1]; double dose, 64 hr): 2 | Survival (%) post bacterial challenge ([1]; double dose, 64 hr): 14% | Survival post bacterial challenge, surviving mice ([1]; double dose, 72 hr): 2 | Survival (%) post bacterial challenge ([1]; double dose, 72 hr): 14% | Survival post bacterial challenge, surviving mice ([1]; double dose, 96 hr): 2 | Survival (%) post bacterial challenge ([1]; double dose, 96 hr): 14% | Survival post bacterial challenge, surviving mice ([1]; single dose (200 μg per mouse i.p. at 30 min), 16 hr): 15 | Survival post bacterial challenge, surviving mice ([1]; single dose, 24 hr): 15 | Survival post bacterial challenge, surviving mice ([1]; single dose, 41 hr): 9 | Survival post bacterial challenge, surviving mice ([1]; single dose, 48 hr): 3 | Survival post bacterial challenge, surviving mice ([1]; single dose, 64 hr): 1 | Survival (%) post bacterial challenge ([1]; single dose, 64 hr): 6% | Survival post bacterial challenge, surviving mice ([1]; single dose, 72 hr): 1 | Survival (%) post bacterial challenge ([1]; single dose, 72 hr): 6% | Survival post bacterial challenge, surviving mice ([1]; single dose, 96 hr): 1 | Survival (%) post bacterial challenge ([1]; single dose, 96 hr): 16% | FIC for combination of cationic peptide and lysozyme (P. aeruginosa (H103)): 0.75 | Lowest [CP] showing synergy (P. aeruginosa (H103); [6]): 2.6 µg/mL | Lowest [Lyso] showing synergy (P. aeruginosa (H103); [7]): 250 µg/mL | FIC for combination of cationic peptide and lysozyme (E. coli [2]): 0.07 | Lowest [CP] showing synergy (E. coli [2]; [6]): 1.3 µg/mL | Lowest [Lyso] showing synergy (E. coli [2]; [7]): 7.8 µg/mL | FIC for combination of cationic peptide and lysozyme (Salmonella typhi): 0.50 | Lowest [CP] showing synergy (Salmonella typhi; [6]): 2.61 µg/mL | Lowest [Lyso] showing synergy (Salmonella typhi; [7]): 7.8 µg/mL | MIC E. coli (E. coli [3]): 4 µg/mL | MIC S. aureus K147 (S. aureus K147): 8 µg/mL | MIC S. aureus (S. aureus): 8 µg/mL | MIC P. aeruginosa (P. aeruginosa): 4 µg/mL | (B) MIC of Cipro when combined with peptide ([4]; ciprofloxacin with peptide at concentration (A), Nal B, H744): .125 µg/mL | FIC index ([4]; peptide + ciprofloxacin, Nal B, H744): .75 | MIC A MIC of Peptides ([4]; peptide alone, P. aeruginosa mutant Nal B, H744 (Table 5)): 4 µg/mL | (A) Peptide doses together with Cipro ([4]; peptide concentration in combination with ciprofloxacin, Nal B, H744): 1 µg/mL | (B) MIC of Carb when combined with peptide ([5]; Carbenicillin with peptide at concentration (A)): 64 µg/mL | MIC A MIC of Peptides ([5]; peptide alone): 4 µg/mL | (A) Peptide doses together with Carb ([5]; peptide concentration in combination with Carbenicillin): 1 µg/mL
